Test results published in US6825230B2, “Spiro and dispiro 1,2,4-trixolane antimalarials” (Medicines for Malaria Venture MMV, priority 2002, dated 2004).
Converted amounts (≈) assume the structure as drawn. Where two headings read alike, the source gives them in different places.

Columns and labels:
[1] = tested on: chloroquine-resistant K1 strain of P. falciparum; assay: In vitro antimalarial semiautomated microdilution assay ([3H]-hypoxanthine incorporation), K1 strain; type: cell-based, Plasmodium falciparum; details: Plasmodium falciparum
How it was run: (§1)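 IC50 values come from Logit regression of [3H]-hypoxanthine uptake data. Parasites were intraerythrocytic P. falciparum forms taken from asynchronous stock cultures and tested by semiautomated microdilution.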

[2] = tested on: chloroquine-sensitive NF54 strain of P. falciparum; assay: In vitro antimalarial semiautomated microdilution assay ([3H]-hypoxanthine incorporation), NF54 strain; type: cell-based, Plasmodium falciparum; details: Plasmodium falciparum
How it was run: as §1

[3] = tested on: ANKA strain of P. berghei; assay: Single dose STI in vivo screen in infected mice; parameters: species or system Plasmodium berghei; details: for Survival (days) 10 mg/kg SSV po: single 10 mg/kg po in SSV; for Activity (%) 10 mg/kg SSV po: single 10 mg/kg po in standard suspending vehicle (SSV) on day 1 post-infection; for Survival (days) 3 mg/kg SSV po / Activity (%) 3 mg/kg SSV po: single 3 mg/kg po in SSV
[4] = tested on: Schistosoma mansoni 21-day-old schistosomules; assay: Effect on 21-day-old schistosomules in infected mice; type: in vivo; details: single 200 mg/kg per os, 21-day-old schistosomules
Experimental: Mice were infected with 100 Schistosoma mansoni cercariae on day 21 post-treatment. Each group was treated per os with trioxolanes at a single dose of 200 mg/kg. […] All groups were killed 4 weeks after treatment and the liver and intestine were removed and separated. The liver and intestine were compressed and alive male and female worms could be seen and counted. The effect of the compounds was evaluated by mean total and female worm burden.

[5] = tested on: Schistosoma mansoni adult worms (49-day-old); assay: Effect on adult schistosomes (49-day-old) in infected mice; type: in vivo; details: single 400 mg/kg per os; for % reduction of adult worms growth at day 49 after per os application of 400 mg/kg, TWR (%): 49-day-old adults, total worm reduction rate; for Adult worms day 49, per os 400 mg/kg, DEAD WORM (%): percentage of dead worm in the liver
Experimental: Mice were infected with 100 Schistosoma mansoni cercariae on day 49 post-treatment. Each group was treated per os with OZ compounds at single doses of 200, 400, and 600 mg/kg. Untreated mice served as the control. All groups were killed 4 weeks after treatment and the liver and intestine were removed and separated. The liver and intestine were compressed and alive male and female worms could be seen and counted.

[6] = tested on: ANKA strain of Plasmodium berghei; assay: Single dose ED50/ED90/ED99 determination in infected mice; type: in vivo; details: single dose po in SSV on day 1 post-infection, parasitemia day 3, nonlinear fitting
Experimental: In the single dose ED50/ED98/ED99 determinations, Moro SPF or NMRI mice (group of three) infected with the ANKA strain of Plasmodium berghei were treated on day one post-infection. […] The SSV consists of 0.5% w/v CMC, 0.5% v/v benzyl alcohol, 0.4% v/v Tween 80, and 0.9% w/v sodium chloride in water. Antimalarial activity was measured by percent reduction in parasitemia on day three post-infection. The ED50/ED90 values were calculated by nonlinear fitting.
The ED50, ED90, and ED99 values were calculated by non-linear fitting with statistical program and were expressed in mg/kg.

[7] = tested on: P. berghei ANKA strain; assay: Divided 3x10 mg/kg vs single 1x30 mg/kg po dose in infected mice; type: in vivo, Plasmodium berghei; details: for Survival (days) 3 × 10 mg/kg p.o. SSV / Activity (%) 3 × 10 mg/kg p.o. SSV: 10 mg/kg po on days 1, 2, 3 post-infection
Experimental: (§2) Moro NMRI male mice (Fu Albino specific pathogen free) weighing 18±2 g were infected intravenously (i.v.) with 2×10^7 P. berghei ANKA strain-infected erythrocytes from donor mice on day 0 of the experiment. From donor mice with circa 30% parasitemia, heparinized blood was taken and diluted in physiological saline to 10^8 parasitized erythrocytes per ml. An aliquot (0.2 ml) of this suspension was injected i.v. into experimental and control groups of mice. […] Throughout the experiments, mice were kept in groups of three or five animals in Makrolon type II cages in an air-conditioned animal room at 22 to 23° C.
(§3) They were administered per os (p.o.) in a total volume of 0.01 ml per gram of mouse. The activity of the compound was determined by a variety of methods outlined in subsequent sections. Survival time was also recorded, and survival to day 30 post-infection was considered to be a cure.
The first experiment conducted consisted of administration of a divided 3×10 mg/kg p.o. dose administered on days 1, 2, and 3 post-infection vs. a single 1×30 mg/kg po dose administered on day 1 post-infection. On day 4 post-infection, blood smears of all animals were prepared and stained with Giemsa. […] Compounds were administered orally in the SSV vehicle.

[8] = tested on: P. berghei ANKA strain; assay: Divided 3x3 mg/kg and 3x1 mg/kg po doses in infected mice; type: in vivo, Plasmodium berghei; details: for Cures: 3 mg/kg, 720 h
Experimental: as §2, §3
The second experiment consists of administration of divided 3×3 mg/kg and 3×1 mg/kg po doses administered on days 1, 2, and 3 post-infection. On day 4 post-infection, blood smears of all animals were prepared and stained with Giemsa. […] Compounds were administered orally in the SSV vehicle.

[9] = tested on: P. berghei ANKA strain; assay: Prophylactic activity, single 100 mg/kg po at various times before infection; type: in vivo, Plasmodium berghei; details: for Prophylactic Activity (%) 72 h: po, 100 mg/kg; for Prophylactic Activity (%) 24 h: single 100 mg/kg po 24 h before infection; for Prophylactic Activity (%) 24 h / Prophylactic Activity (%) 48 h / Prophylactic Activity (%) 0 h: parasitemia reduction on day 3 post-infection; for Prophylactic Activity (%) 48 h: single 100 mg/kg po 48 h before infection; for Prophylactic Activity (%) 0 h: single 100 mg/kg po at 0 h
Experimental: as §2
Prophylactic activities of the compounds were compared after administering po single dose of 100 mg/kg to different groups of five animals at various times before infection. All groups including an untreated control group, were then infected at the same time. Parasitemia was determined for each animal on day 3 post-infection, and percent of reduction of the level of parasitemia compared to levels for animals given no drug is determined.

[10] = percent reduction in parasitemia on day 3
[11] = chloroquine-resistant K1 strain, 72 h incubation, read-out: IC50 (ng/ml) K1
[12] = chloroquine-sensitive NF54 strain, 72 h incubation, read-out: IC50 (ng/ml) NF54
[13] = 3 × 1 mg/kg p.o. SSV on days 1, 2, 3 post-infection
[14] = 3 × 3 mg/kg p.o. SSV on days 1, 2, 3 post-infection
[15] = 3 × 3 mg/kg p.o. SSV on days 1, 2, 3 post-infection, percent reduction of parasitemia vs control on day 4

Compound | Survival (days) 10 mg/kg SSV po ([3]; untreated 6-7 days) [days] | Activity (%) 10 mg/kg SSV po [3, 10] [%] | % reduction of adult worms growth at day 49 after per os application of 400 mg/kg, TWR (%) [5] [%] | Adult worms day 49, per os 400 mg/kg, DEAD WORM (%) [5] [%] | IC50 [1, 11] [ng/mL] | IC50 [2, 12] [ng/mL] | Survival (days) 3 mg/kg SSV po [3] [days] | Activity (%) 3 mg/kg SSV po [3, 10] [%] | Survival (days) 3 × 10 mg/kg p.o. SSV [7] [days] | Activity (%) 3 × 10 mg/kg p.o. SSV ([7]; parasitemia reduction on day 4) [%] | Survival [8, 13] [days] | Survival [8, 14] [days] | Activity (%) [8, 15] [%] | Activity (%) ([8]; po, 1 mg/kg, 96 h) | Cures ([8]; po) | Prophylactic Activity (%) 72 h [9] [%] | Prophylactic Activity (%) 24 h [9] [%] | Prophylactic Activity (%) 48 h [9] [%] | Prophylactic Activity (%) 0 h [9] [%] | further results
CC(C)(O)C[C@H]1CC[C@]2(CC1)OOC1(O2)C2CC3CC(C2)CC1C3 (stereo partly shown) [OZ205] | 8.7 | 99.94 | 0 | 12 |  |  |  |  |  |  |  |  |  |  |  |  |  |  |  | IC50 ([1]; K1, 72 h, read-out: IC50 (ng/ml) K1, chloroquine-resistant K1 strain, 72 h incubation): 1.5 ng/mL (≈ 4.46 nM); IC50 ([2]; NF54, 72 h, read-out: IC50 (ng/ml) NF54, chloroquine-sensitive NF54 strain, 72 h incubation): 2 ng/mL (≈ 5.94 nM); Survival (days) 10 mg/kg po ([3]; single 10 mg/kg po in 3% ethanol and 7% Tween 80, untreated 6-7 days): 10.0 days; Activity (%) 10 mg/kg po ([3]; single 10 mg/kg po in 3% ethanol and 7% Tween 80 on day 1 post-infection, percent reduction in parasitemia on day 3): 99.96%; Survival (days) 10 mg/kg sc ([3]; single 10 mg/kg sc in 3% ethanol and 7% Tween 80, untreated 6-7 days): 9.7 days; Activity (%) 10 mg/kg sc ([3]; single 10 mg/kg sc in 3% ethanol and 7% Tween 80 on day 1 post-infection, percent reduction in parasitemia on day 3): 99.96%; % reduction of schistosomule growth at day 21 after per os application of 200 mg/kg, FWR (%) ([4]; female worm reduction rate): 83%; % reduction of schistosomule growth at day 21 after per os application of 200 mg/kg, TWR (%) ([4]; total worm reduction rate): 84%; ED50 ([6]; Plasmodium berghei, po): 1.6 mg/kg; ED90 [6]: 3.3 mg/kg; ED99 [6]: 6.0 mg/kg
NCC(=O)NC[C@H]1CC[C@]2(CC1)OO[C@]1(O2)C2CC3CC(C2)CC1C3 [OZ271] | 8.7 | 99.93 | 0 | 6 | 0.36 (≈ 1.03 nM) | 0.29 (≈ 0.827 nM) | 8.6 | 99.52 | 27.8 | 100 | 8.8 | 16.2 | 99.99 | 87 | 0\5 | 99.89 | 100 | 99.98 | 100 | Survival (days) 1 × 30 mg/kg p.o. SSV ([7]; single 30 mg/kg po on day 1 post-infection): 14 days; Activity (%) 1 × 30 mg/kg p.o. SSV ([7]; single 30 mg/kg po on day 1 post-infection, parasitemia reduction on day 4): 99.97%; Cures 1 × 30 mg/kg p.o. SSV ([7]; single 30 mg/kg po, cure = survival to day 30 post-infection): 0/5; Duration of prophylactic protection ([9]; single 100 mg/kg po): 3 days
CC(C)(N)C(=O)NC[C@H]1CC[C@]2(CC1)OOC1(O2)C2CC3CC(C2)CC1C3 (stereo partly shown) [OZ281] | 8.7 | 99.87 | 12 | 15 | 0.5 (≈ 1.32 nM) | 0.3 (≈ 0.793 nM) |  | 96 |  |  | 13 | 12.4 | 100 | 92 | 0\5 | 8 | 99.23 | 45 | 100 | 
c1cc(OC[C@H]2CC[C@]3(CC2)OO[C@]2(O3)C3CC4CC(C3)CC2C4)ccn1 [OZ301] | 11.8 | 100 |  |  |  |  | 8.4 | 97 | >30 | 100 | 8.8 | 23 | 100 |  |  |  |  |  |  | Cured infected mice at the 3×3 mg/kg dose ([8]; 3 mg/kg po (SSV) on days 1, 2, 3 post-infection): 1/5; Activity (%) ([8]; 3 × 1 mg/kg p.o. SSV on days 1, 2, 3 post-infection, percent reduction of parasitemia vs control on day 4): 58%
Cc1ccc(S(=O)(=O)O)cc1.N[C@H]1CC[C@H](NC(=O)C[C@H]2CC[C@]3(CC2)OO[C@]2(O3)C3CC4CC(C3)CC2C4)CC1 [OZ315] | 11.2 | 99.97 |  |  |  |  | 9.6 | 92 | >30 | 100 | 12.2 | 22 | 99.99 | 81 | 0\5 |  |  |  |  | 
